The subject of assay [1] is ASPC1 cells. The assay is described as follows: Inhibition of KRas-mediated phosphorylation of ERK (Cisbio HTRF pERK), ASPC1 cells. In kind it is cell-based. The note with it: Homo sapiens, AsPC-1 cells; for IC50: ASPC1, 3 h, 3 hr compound incubation, Cisbio pERK HTRF; for inhibition at 0.1 µM: ASPC1, single point at 100 nM, 3 hrs compound incubation.
The subject of assay [2] is H358 cells. The assay can be described thus: Inhibition of KRas-mediated phosphorylation of ERK (Cisbio HTRF pERK), H358 cells. In kind it is cell-based. The note with it: Homo sapiens; for IC50: NCI-H358, 3 h, 3 hr compound incubation, Cisbio pERK HTRF; for inhibition at 0.1 µM: NCI-H358, single point at 100 nM, 3 hrs compound incubation.
Assay [3] relates to HCT116 cells. The assay is described as follows: Inhibition of KRas-mediated phosphorylation of ERK (Cisbio HTRF pERK), HCT116 cells. In kind it is cell-based. As to conditions: Homo sapiens; for IC50: HCT-116, 3 h, 3 hr compound incubation, Cisbio pERK HTRF; for inhibition at 0.1 µM: HCT-116, single point at 100 nM, 3 hrs compound incubation.
The target in assay [4] is KRas G12D (Homo sapiens, UniProt P01116, G12D). The assay can be described thus: biochemical. As to conditions: Binding to KRas (IC50 nM) G12D, TR-FRET displacement, KRas G12D.
Chain of KRas G12D (P01116 1-169 isoform P01116-2 G12D): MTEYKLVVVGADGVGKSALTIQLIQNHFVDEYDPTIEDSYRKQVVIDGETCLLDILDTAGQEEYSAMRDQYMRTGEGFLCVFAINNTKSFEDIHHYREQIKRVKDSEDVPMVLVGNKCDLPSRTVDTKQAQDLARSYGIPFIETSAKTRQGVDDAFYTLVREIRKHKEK
Assay [5] deals with H460 cells. The assay can be described thus: Inhibition of KRas-mediated phosphorylation of ERK (Cisbio HTRF pERK), H460 cells. The format is cell-based. The note with it: Homo sapiens; for IC50: NCI-H460, 3 h, 3 hr compound incubation, Cisbio pERK HTRF; for inhibition at 0.1 µM: NCI-H460, single point at 100 nM, 3 hrs compound incubation.
Assay [6] addresses KRas Q61H (Homo sapiens, UniProt P01116, Q61H). The assay is described as follows: KRas binding assay (TR-FRET displacement), KRas Q61H. The note with it: single point, 10 nM compound.
In assay [7] the target is KRas WT (Homo sapiens, UniProt P01116). The assay can be described thus: KRas binding assay (TR-FRET displacement), KRas WT. As to conditions: single point, 10 nM compound.
Chain of KRas WT (P01116 1-169 isoform P01116-2): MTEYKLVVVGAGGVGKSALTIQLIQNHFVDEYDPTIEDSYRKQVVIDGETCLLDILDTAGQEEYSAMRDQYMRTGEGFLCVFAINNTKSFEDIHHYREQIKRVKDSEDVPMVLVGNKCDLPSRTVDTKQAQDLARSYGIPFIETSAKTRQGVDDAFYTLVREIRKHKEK
Assay [8] addresses KRas G12C (Homo sapiens, UniProt P01116, G12C). In kind it is binding. The note with it: single point, 10 nM compound, read-out: Binding to KRas (% inhibition at 10 nM) G12C.
Assay [9] deals with H727 cells. The assay is described as follows: Inhibition of KRas-mediated phosphorylation of ERK (Cisbio HTRF pERK), H727 cells. As to conditions: Homo sapiens; for IC50: NCI-H727, 3 h, 3 hr compound incubation, Cisbio pERK HTRF; for inhibition at 0.1 µM: NCI-H727, single point at 100 nM, 3 hrs compound incubation. The format is cell-based.
Assay [10] concerns the target KRas G12A (Homo sapiens, UniProt P01116, G12A). In kind it is binding. As to conditions: single point, 10 nM compound, read-out: Binding to KRas (% inhibition at 10 nM) G12A.
Assay [11] deals with KRas G12R (Homo sapiens, UniProt P01116, G12R). The assay is described as follows: biochemical. As to conditions: Binding to KRas (IC50 nM) G12R, TR-FRET displacement, KRas G12R.
Chain of KRas G12R (P01116 1-169 isoform P01116-2 G12R): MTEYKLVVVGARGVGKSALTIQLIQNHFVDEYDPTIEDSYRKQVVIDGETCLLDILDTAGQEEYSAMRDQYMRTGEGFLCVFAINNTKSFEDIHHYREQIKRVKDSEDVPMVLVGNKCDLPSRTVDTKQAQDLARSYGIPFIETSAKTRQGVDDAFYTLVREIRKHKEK
In assay [12] the test system is A549 cells. The assay can be described thus: Inhibition of KRas-mediated phosphorylation of ERK (Cisbio HTRF pERK), A549 cells. The format is cell-based. The note with it: Homo sapiens; for IC50: A549, 3 h, 3 hr compound incubation, Cisbio pERK HTRF; for inhibition at 0.1 µM: single point at 100 nM, 3 hrs compound incubation.
The target in assay [13] is KRas G12S (Homo sapiens, UniProt P01116, G12S). The format is binding. The note with it: single point, 10 nM compound, read-out: Binding to KRas (% inhibition at 10 nM) G12S.
Chain of KRas G12S (P01116 1-169 isoform P01116-2 G12S): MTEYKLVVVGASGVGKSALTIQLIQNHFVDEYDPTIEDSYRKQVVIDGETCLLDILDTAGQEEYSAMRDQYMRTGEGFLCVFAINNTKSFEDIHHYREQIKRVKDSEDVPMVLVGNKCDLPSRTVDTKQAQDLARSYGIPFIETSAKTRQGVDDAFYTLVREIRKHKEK
For assay [14], the target named is KRas G12V (Homo sapiens, UniProt P01116, G12V). The assay is described as follows: biochemical. As to conditions: Binding to KRas (IC50 nM) G12V, TR-FRET displacement, KRas G12V.
Chain of KRas G12V (P01116 1-169 isoform P01116-2 G12V): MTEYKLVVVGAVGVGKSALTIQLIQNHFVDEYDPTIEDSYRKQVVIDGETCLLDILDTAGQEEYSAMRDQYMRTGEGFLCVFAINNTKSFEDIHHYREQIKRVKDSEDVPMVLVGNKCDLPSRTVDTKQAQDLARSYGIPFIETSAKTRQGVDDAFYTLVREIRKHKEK
For assay [15], the system named is MKN1 cells. The assay is described as follows: Inhibition of KRas-mediated phosphorylation of ERK (Cisbio HTRF pERK), MKN1 cells. In kind it is cell-based. The note with it: Homo sapiens, MKN-1, 3 hour compound incubation, Cisbio pERK HTRF. The essentials:
(§1)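 Day 1: 6,000 cells/well plated, RPMI + 10% FBS.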

Assay [16] has as its target KRas G13D (Homo sapiens, UniProt P01116, G13D). In kind it is binding. As to conditions: single point, 10 nM compound, read-out: Binding to KRas (% inhibition at 10 nM) G13D.
Assay [17] concerns PSN1 cells. The assay can be described thus: Inhibition of KRas-mediated phosphorylation of ERK (Cisbio HTRF pERK), PSN1 cells. In kind it is cell-based. The note with it: Homo sapiens, PSN1, 3 h, 3 hour compound incubation, Cisbio pERK HTRF. The essentials: as §1

A value given as a limit tells only on which side of the number the result lay.

Chain of KRas Q61H (P01116 1-169 isoform P01116-2 Q61H): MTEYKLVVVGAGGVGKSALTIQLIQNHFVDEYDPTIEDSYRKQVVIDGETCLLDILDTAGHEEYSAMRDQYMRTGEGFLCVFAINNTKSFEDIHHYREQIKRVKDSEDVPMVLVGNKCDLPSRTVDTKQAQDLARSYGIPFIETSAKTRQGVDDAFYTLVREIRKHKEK
Chain of KRas G12A (P01116 1-169 isoform P01116-2 G12A): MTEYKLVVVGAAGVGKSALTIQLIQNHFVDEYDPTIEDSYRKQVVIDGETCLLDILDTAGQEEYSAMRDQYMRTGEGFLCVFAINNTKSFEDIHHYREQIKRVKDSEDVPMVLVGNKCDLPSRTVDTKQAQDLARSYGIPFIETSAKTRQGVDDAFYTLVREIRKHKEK
Chain of KRas G13D (P01116 1-169 isoform P01116-2 G13D): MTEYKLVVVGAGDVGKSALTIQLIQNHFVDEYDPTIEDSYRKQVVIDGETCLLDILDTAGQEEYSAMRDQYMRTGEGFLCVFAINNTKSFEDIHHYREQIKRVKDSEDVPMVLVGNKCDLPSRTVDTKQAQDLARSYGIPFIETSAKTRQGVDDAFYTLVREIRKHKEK
Chain of KRas G12C (P01116 1-169 isoform P01116-2 G12C): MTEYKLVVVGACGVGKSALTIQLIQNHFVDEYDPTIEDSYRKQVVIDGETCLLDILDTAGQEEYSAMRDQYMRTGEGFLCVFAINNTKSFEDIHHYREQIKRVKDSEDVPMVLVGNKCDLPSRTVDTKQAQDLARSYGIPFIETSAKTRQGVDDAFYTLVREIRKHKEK

Take `CCc1c(F)ccc2cc(O)cc(N3CCc4c(nc(OC[C@@]56CCCN5C[C@H](F)C6)nc4N4CCCn5nc(C(=O)N6CC[C@@H]7CC[C@H]6C7)cc5C4)C3)c12` [Example 338, (1S,5S)-2-azabicyclo[3.2.1]octan-2-yl(5-(7-(8-ethyl-7-fluoro-3-hydroxynaphthalen-1-yl)-2-(((2R,7aS)-2-fluorohexahydro-1H-pyrrolizin-7a-yl)methoxy)-5,6,7,8-tetrahydropyrido[3,4-d]pyrimidin-4-yl)-5,6,7,8-tetrahydro-4H-pyrazolo[1,5-a][1,4]diazepin-2-yl)methanone]: the IC50 in assay [1] is 6 nM; in assay [2], 7 nM; in [3] it was 226 nM; in [4], 2 nM; in [5], 67 nM; in [9] it was 11 nM. Moreover, the IC50 was under 2 nM in assay [11]; 21 nM in assay [12]; under 2 nM in [14]; 9.6 nM in assay [15]; 5430 nM in assay [17]. In addition, the inhibition at 0.1 µM was found to be 95% in [1]; 102% in assay [2]; 38% in assay [3]; 73% in assay [5]; 76% in assay [9]; 78% in assay [12]. Further, the inhibition at 0.01 µM in [6] turned out to be 93%; in [7], 92%; in [8], 97%; in assay [10] it was 90%; in assay [13], 97%; in assay [16], 92%.
Regarding `CCc1c(F)ccc2cc(O)cc(N3CCc4c(nc(OC[C@@]56CCCN5C[C@H](F)C6)nc4N4CCCn5nc(C(=O)N6CC7CCC6CC7)cc5C4)C3)c12` [Example 339, 2-azabicyclo[2.2.2]octan-2-yl(5-(7-(8-ethyl-7-fluoro-3-hydroxynaphthalen-1-yl)-2-(((2R,7aS)-2-fluorohexahydro-1H-pyrrolizin-7a-yl)methoxy)-5,6,7,8-tetrahydropyrido[3,4-d]pyrimidin-4-yl)-5,6,7,8-tetrahydro-4H-pyrazolo[1,5-a][1,4]diazepin-2-yl)methanone], the IC50 in assay [1] amounted to 6 nM; in assay [2], 4 nM; in assay [3] it was 156 nM; in assay [4], 2 nM; in assay [5] it was 43 nM; in assay [9], 6 nM. The IC50 in assay [11] is under 2 nM; in [12], 17 nM; in assay [14], under 2 nM; in assay [15] it was 8.4 nM; in assay [17] it was 5720 nM. The inhibition at 0.1 µM in assay [1] amounted to 97%; in [2], 95%; in assay [3], 20%; in [5] it was 59%; in assay [9] it was 74%; in assay [12], 80%. Moreover, the inhibition at 0.01 µM in assay [6] was found to be 94%; in [7], 93%; in [8] it was 98%; in assay [10], 92%; in assay [13] it was 97%; in [16], 92%.
Consider `CCc1c(F)ccc2cc(O)cc(N3CCc4c(nc(OC[C@@]56CCCN5C[C@H](F)C6)nc4N4CCCn5nc(C(=O)N6C7CCC6CC7)cc5C4)C3)c12` [Example 340, 7-azabicyclo[2.2.1]heptan-7-yl(5-(7-(8-ethyl-7-fluoro-3-hydroxynaphthalen-1-yl)-2-(((2R,7aS)-2-fluorohexahydro-1H-pyrrolizin-7a-yl)methoxy)-5,6,7,8-tetrahydropyrido[3,4-d]pyrimidin-4-yl)-5,6,7,8-tetrahydro-4H-pyrazolo[1,5-a][1,4]diazepin-2-yl)methanone], for which the IC50 in [1] is 8 nM; in assay [2] it was 3 nM; in [3], 110 nM; in assay [4] it was under 2 nM; in assay [5] it was 31 nM; in assay [9] it was 4 nM. Further, the IC50 in assay [11] is under 2 nM; in assay [12] it was 11 nM; in assay [14], under 2 nM; in assay [15], 7.5 nM; in assay [17] it was 2510 nM. Further, the inhibition at 0.1 µM is 96% in assay [1]; 96% in assay [2]; 32% in assay [3]; 69% in assay [5]; 80% in [9]; 82% in [12]. Further, the inhibition at 0.01 µM amounted to 97% in assay [6]; 94% in assay [7]; 98% in [8]; 97% in assay [10]; 99% in assay [13]; 94% in [16].
In the case of `CCc1c(F)ccc2cc(O)cc(N3CCc4c(nc(OC[C@@]56CCCN5C[C@H](F)C6)nc4N4CCCn5nc(C(=O)N6C7CCCC6CC7)cc5C4)C3)c12` [Example 341, 8-azabicyclo[3.2.1]octan-8-yl(5-(7-(8-ethyl-7-fluoro-3-hydroxynaphthalen-1-yl)-2-(((2R,7aS)-2-fluorohexahydro-1H-pyrrolizin-7a-yl)methoxy)-5,6,7,8-tetrahydropyrido[3,4-d]pyrimidin-4-yl)-5,6,7,8-tetrahydro-4H-pyrazolo[1,5-a][1,4]diazepin-2-yl)methanone], the IC50 is 8 nM in assay [1]; 3 nM in assay [2]; 141 nM in assay [3]; 2 nM in [4]; 42 nM in [5]; 9 nM in [9]. The IC50 in assay [11] is 2 nM; in assay [12], 19 nM; in assay [14] it was under 2 nM; in assay [15], 6.7 nM; in [17], 4530 nM. Also, the inhibition at 0.1 µM is 95% in [1]; 91% in [2]; 47% in assay [3]; 77% in assay [5]; 76% in assay [9]; 75% in assay [12]. Moreover, the inhibition at 0.01 µM worked out at 95% in [6]; 93% in [7]; 97% in assay [8]; 87% in assay [10]; 96% in [13]; 92% in assay [16].
